Results reported in the supplement of paper PMC10307832.

How the values were obtained:
Experiment in all cases: relative viability (nuclei count vs DMSO), 5 days (fraction); higher = more cells survive
NCI-H2085 = tested on: NCI-H2085
In short: (§1)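 Lung cancer cell lines were seeded in 1536-well plates and dosed by pin tool the next day, with either a single drug or a fixed anchor-drug dose combined with five library-drug doses (not always all listed) spaced in √10 steps. Five days later, one step fixed the cells and stained their nuclei (final 0.05% Triton X-100, 1% formaldehyde, 1 ug/ml Hoechst), and nuclei were counted on 4× images. Relative viability is the nuclei count in treated wells divided by the count in vehicle wells, and each value is the median of duplicate plates.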

NCI-H1755 = tested on: NCI-H1755
In short: as §1

UMC-11 = tested on: UMC-11
In short: as §1

NCI-H358 = tested on: NCI-H358
In short: as §1

NCI-H460 = tested on: NCI-H460
In short: as §1

LU99A = tested on: LU99A
In short: as §1

SW 900 = tested on: SW 900
In short: as §1

LCLC-97TM1 = tested on: LCLC-97TM1
In short: as §1

NCI-H2170 = tested on: NCI-H2170
In short: as §1

NCI-H1915 = tested on: NCI-H1915
In short: as §1

A-427 = tested on: A-427
In short: as §1

NCI-H2342 = tested on: NCI-H2342
In short: as §1

HOP-62 = tested on: HOP-62
In short: as §1

LC-2-ad = tested on: LC-2-ad
In short: as §1

COR-L 105 = tested on: COR-L 105
In short: as §1

HCC-366 = tested on: HCC-366
In short: as §1

HCC-78 = tested on: HCC-78
In short: as §1

NCI-H1944 = tested on: NCI-H1944
In short: as §1

NCI-H1793 = tested on: NCI-H1793
In short: as §1

LXF-289 = tested on: LXF-289
In short: as §1

EPLC-272H = tested on: EPLC-272H
In short: as §1

NCI-H1792 = tested on: NCI-H1792
In short: as §1

SK-LU-1 = tested on: SK-LU-1
In short: as §1

NCI-H1975 = tested on: NCI-H1975
In short: as §1

Structure (SMILES): C[C@@H]1CN(CC(=O)Nc2ccc3c(c2)Cc2cccc(-c4cc(=O)cc(N5CCOCC5)o4)c2S3)C[C@H](C)O1 + Nc1ncn([C@H]2C[C@H](O)[C@@H](CO)O2)c(=O)n1 [Decitabine] (partner 2 µM)
- relative viability (NCI-H2085; first compound 0.04 µM): 0.564
- relative viability (NCI-H2085; first compound 0.1265 µM): 0.589
- relative viability (NCI-H2085; first compound 0.4 µM): 0.605
- relative viability (NCI-H2085; first compound 4 µM): 0.584
- relative viability (NCI-H1755; first compound 0.04 µM): 0.708
- relative viability (NCI-H1755; first compound 0.1265 µM): 0.737
- relative viability (NCI-H1755; first compound 0.4 µM): 0.77
- relative viability (NCI-H1755; first compound 4 µM): 0.796
- relative viability (UMC-11; first compound 0.04 µM): 0.477
- relative viability (UMC-11; first compound 0.1265 µM): 0.62
- relative viability (UMC-11; first compound 0.4 µM): 0.728
- relative viability (UMC-11; first compound 4 µM): 0.513
- relative viability (NCI-H358; first compound 0.04 µM): 0.181
- relative viability (NCI-H358; first compound 0.1265 µM): 0.204
- relative viability (NCI-H358; first compound 0.4 µM): 0.172
- relative viability (NCI-H358; first compound 4 µM): 0.14
- relative viability (NCI-H460; first compound 0.04 µM): 0.401
- relative viability (NCI-H460; first compound 0.1265 µM): 0.466
- relative viability (NCI-H460; first compound 0.4 µM): 0.379
- relative viability (NCI-H460; first compound 4 µM): 0.335
- relative viability (LU99A; first compound 0.04 µM): 0.815
- relative viability (LU99A; first compound 0.1265 µM): 0.928
- relative viability (LU99A; first compound 0.4 µM): 0.859
- relative viability (LU99A; first compound 4 µM): 0.851
- relative viability (SW 900; first compound 0.04 µM): 0.453
- relative viability (SW 900; first compound 0.1265 µM): 0.427
- relative viability (SW 900; first compound 0.4 µM): 0.515
- relative viability (SW 900; first compound 4 µM): 0.43
- relative viability (LCLC-97TM1; first compound 0.1265 µM): 0.231
- relative viability (LCLC-97TM1; first compound 0.4 µM): 0.279
- relative viability (LCLC-97TM1; first compound 4 µM): 0.273
- relative viability (NCI-H2170; first compound 0.04 µM): 0.492
- relative viability (NCI-H2170; first compound 0.1265 µM): 0.459
- relative viability (NCI-H2170; first compound 0.4 µM): 0.508
- relative viability (NCI-H2170; first compound 4 µM): 0.464
- relative viability (NCI-H1915; first compound 0.04 µM): 0.259
- relative viability (NCI-H1915; first compound 0.1265 µM): 0.279
- relative viability (NCI-H1915; first compound 0.4 µM): 0.283
- relative viability (NCI-H1915; first compound 4 µM): 0.29
- relative viability (A-427; first compound 0.04 µM): 0.533
- relative viability (A-427; first compound 0.1265 µM): 0.605
- relative viability (A-427; first compound 0.4 µM): 0.562
- relative viability (A-427; first compound 4 µM): 0.587
- relative viability (NCI-H2342; first compound 0.04 µM): 0.76
- relative viability (NCI-H2342; first compound 0.1265 µM): 0.779
- relative viability (NCI-H2342; first compound 0.4 µM): 0.71
- relative viability (NCI-H2342; first compound 4 µM): 0.704
- relative viability (HOP-62; first compound 0.04 µM): 0.229
- relative viability (HOP-62; first compound 0.1265 µM): 0.202
- relative viability (HOP-62; first compound 0.4 µM): 0.187
- relative viability (HOP-62; first compound 4 µM): 0.245
- relative viability (LC-2-ad; first compound 0.04 µM): 0.939
- relative viability (LC-2-ad; first compound 0.1265 µM): 0.786
- relative viability (LC-2-ad; first compound 0.4 µM): 0.792
- relative viability (LC-2-ad; first compound 4 µM): 0.628
- relative viability (COR-L 105; first compound 0.04 µM): 0.644
- relative viability (COR-L 105; first compound 0.1265 µM): 0.661
- relative viability (COR-L 105; first compound 0.4 µM): 0.723
- relative viability (COR-L 105; first compound 4 µM): 0.654
- relative viability (HCC-366; first compound 0.04 µM): 0.347
- relative viability (HCC-366; first compound 0.1265 µM): 0.348
- relative viability (HCC-366; first compound 0.4 µM): 0.326
- relative viability (HCC-366; first compound 4 µM): 0.326
- relative viability (HCC-78; first compound 0.04 µM): 0.65
- relative viability (HCC-78; first compound 0.1265 µM): 0.676
- relative viability (HCC-78; first compound 0.4 µM): 0.688
- relative viability (HCC-78; first compound 4 µM): 0.732
- relative viability (NCI-H1944; first compound 0.1265 µM): 0.438
- relative viability (NCI-H1944; first compound 0.4 µM): 0.466
- relative viability (NCI-H1944; first compound 4 µM): 0.457
- relative viability (NCI-H1793; first compound 0.04 µM): 0.536
- relative viability (NCI-H1793; first compound 0.1265 µM): 0.552
- relative viability (NCI-H1793; first compound 0.4 µM): 0.503
- relative viability (NCI-H1793; first compound 4 µM): 0.526
- relative viability (LXF-289; first compound 0.04 µM): 0.374
- relative viability (LXF-289; first compound 0.1265 µM): 0.354
- relative viability (LXF-289; first compound 0.4 µM): 0.419
- relative viability (LXF-289; first compound 4 µM): 0.419
- relative viability (EPLC-272H; first compound 0.04 µM): 0.386
- relative viability (EPLC-272H; first compound 0.1265 µM): 0.384
- relative viability (EPLC-272H; first compound 0.4 µM): 0.394
- relative viability (EPLC-272H; first compound 4 µM): 0.364
- relative viability (NCI-H1792; first compound 0.04 µM): 0.627
- relative viability (NCI-H1792; first compound 0.1265 µM): 0.51
- relative viability (NCI-H1792; first compound 0.4 µM): 0.542
- relative viability (NCI-H1792; first compound 4 µM): 0.441
- relative viability (SK-LU-1; first compound 0.04 µM): 0.693
- relative viability (SK-LU-1; first compound 0.1265 µM): 0.719
- relative viability (SK-LU-1; first compound 0.4 µM): 0.646
- relative viability (SK-LU-1; first compound 4 µM): 0.59
- relative viability (NCI-H1975; first compound 0.04 µM): 0.412
- relative viability (NCI-H1975; first compound 0.1265 µM): 0.44
- relative viability (NCI-H1975; first compound 0.4 µM): 0.364
- relative viability (NCI-H1975; first compound 4 µM): 0.347
